pEC50: −log10 of the molar value. Like-named read-outs stand apart in the source and are kept apart here.
Target: T1, F508delCFTR (Homo sapiens, UniProt P13569, DEL508-508)
T1 construct: expressed in transfected cells; host or cells: CFBE41o- human lung-derived epithelial cells (CFBE4lo-F508delCFTR-HRP), doxycycline-inducible
Experiment: Cell Surface Expression-Horse Radish Peroxidase (CSE-HRP) Assay;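 as to Maximum % activity (with co-corrector): co-corrector and positive control are both the same reference corrector at 2 µM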;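 as to Maximum % activity (without co-corrector): percent of the 2 µM on-plate positive control corrector response above DMSO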
Assay type: cell-based
Details: for Maximum % activity (with co-corrector) / Emax: maximum at any tested concentration, normalized to on-plate positive control; for Emax: read-out: Maximum % activity (without co-corrector)

[1] = CSE-HRP, test compound without co-corrector, read-out: EC50 (without co-corrector)
[2] = CSE-HRP, with co-corrector (2 μM of 3-[(2R,4R)-4-({[1-(2,2-difluoro-1,3-benzodioxol-5-yl)cyclopropyl]carbonyl}amino)-7-methoxy-3,4-dihydro-2H-chromen-2-yl]benzoic acid), read-out: EC50 (with co-corrector)
[3] = CSE-HRP, with co-corrector (2 μM)
[4] = test compound without co-corrector, read-out: EC50 (without co-corrector)
[5] = with co-corrector (2 μM of 3-[(2R,4R)-4-({[1-(2,2-difluoro-1,3-benzodioxol-5-yl)cyclopropyl]carbonyl}amino)-7-methoxy-3,4-dihydro-2H-chromen-2-yl]benzoic acid), read-out: EC50 (with co-corrector)
[6] = test compound without co-corrector
[7] = with co-corrector (2 μM of 3-[(2R,4R)-4-({[1-(2,2-difluoro-1,3-benzodioxol-5-yl)cyclopropyl]carbonyl}amino)-7-methoxy-3,4-dihydro-2H-chromen-2-yl]benzoic acid)

T1 sequence (P13569 with tags, fused parts or gaps DEL508-508): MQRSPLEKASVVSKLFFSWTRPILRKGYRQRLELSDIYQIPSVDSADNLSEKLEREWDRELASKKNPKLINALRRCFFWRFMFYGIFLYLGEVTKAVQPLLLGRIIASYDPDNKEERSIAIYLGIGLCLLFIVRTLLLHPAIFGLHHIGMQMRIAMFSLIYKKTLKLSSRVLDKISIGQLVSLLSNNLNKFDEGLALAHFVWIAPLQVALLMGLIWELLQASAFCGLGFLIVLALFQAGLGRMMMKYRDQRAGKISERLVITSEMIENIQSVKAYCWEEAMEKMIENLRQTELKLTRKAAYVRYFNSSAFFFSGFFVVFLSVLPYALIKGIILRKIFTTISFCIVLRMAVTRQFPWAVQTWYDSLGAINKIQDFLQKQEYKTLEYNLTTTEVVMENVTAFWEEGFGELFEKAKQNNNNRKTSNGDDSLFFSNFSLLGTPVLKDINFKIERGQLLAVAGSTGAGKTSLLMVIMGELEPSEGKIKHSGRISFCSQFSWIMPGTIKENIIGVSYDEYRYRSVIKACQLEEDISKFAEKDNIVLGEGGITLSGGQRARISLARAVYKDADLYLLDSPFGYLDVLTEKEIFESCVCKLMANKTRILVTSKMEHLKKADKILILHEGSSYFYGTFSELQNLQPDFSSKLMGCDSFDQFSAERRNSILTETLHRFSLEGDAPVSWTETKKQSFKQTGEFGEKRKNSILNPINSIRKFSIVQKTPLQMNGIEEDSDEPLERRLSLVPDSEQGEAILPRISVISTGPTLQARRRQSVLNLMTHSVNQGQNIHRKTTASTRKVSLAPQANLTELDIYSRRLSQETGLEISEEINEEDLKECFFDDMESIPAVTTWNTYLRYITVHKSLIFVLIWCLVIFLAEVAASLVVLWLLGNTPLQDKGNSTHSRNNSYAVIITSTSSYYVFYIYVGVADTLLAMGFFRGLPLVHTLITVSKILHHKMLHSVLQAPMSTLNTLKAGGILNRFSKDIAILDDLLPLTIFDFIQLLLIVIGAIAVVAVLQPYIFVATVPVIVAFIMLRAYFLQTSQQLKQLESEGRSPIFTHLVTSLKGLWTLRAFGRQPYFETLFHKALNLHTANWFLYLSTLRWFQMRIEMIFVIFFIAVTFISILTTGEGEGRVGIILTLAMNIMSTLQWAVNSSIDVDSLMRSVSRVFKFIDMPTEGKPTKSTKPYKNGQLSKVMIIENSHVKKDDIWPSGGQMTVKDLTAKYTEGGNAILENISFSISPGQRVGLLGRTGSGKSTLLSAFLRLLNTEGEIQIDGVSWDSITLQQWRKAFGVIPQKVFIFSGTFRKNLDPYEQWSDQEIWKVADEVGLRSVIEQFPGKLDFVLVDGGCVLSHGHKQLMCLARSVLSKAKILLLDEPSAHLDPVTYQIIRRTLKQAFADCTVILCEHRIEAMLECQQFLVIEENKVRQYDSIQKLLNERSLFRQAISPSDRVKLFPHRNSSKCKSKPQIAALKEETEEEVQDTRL

Structure (SMILES) | pEC50 [1] | pEC50 [2] | Maximum % activity (with co-corrector) [3] | Emax (CSE-HRP, without co-corrector) [%] | pEC50 [4] | pEC50 [5] | Maximum % activity (with co-corrector) (with co-corrector (2 μM)) | Emax (without co-corrector) [%] | Emax [6] [%] | Maximum % activity (with co-corrector) [7]
COc1ccc(C(F)(F)F)cc1OCCN[C@H]1[C@H](C(C)(C)C)[C@@H](C(=O)O)N(C(=O)OC(C)C)[C@H]1c1cccnc1OC(C)C [Example I-309] | 5.00 to 6.00 | 5.00 to 6.00 | +++ (≥350) | 100 to 200 |  |  |  |  |  | 
COc1cc2c(cc1CN[C@H]1[C@H](C(C)(C)C)[C@@H](C(=O)O)N(C(=O)[C@@H]3CCCC(F)(F)C3)[C@H]1c1ccccc1)CCC2 [Example I-190] |  |  |  |  | 5.00 to 6.00 | > 6.00 | +++ (≥350) | > 200 |  | 
COc1cc(N[C@H]2[C@H](C(C)(C)C)[C@@H](C(=O)O)N(C(=O)C3CCCCC3)[C@H]2c2ccccc2)nc(OC)n1 (racemic) [Example I-9] |  |  |  |  | < 5.00 | 5.00 to 6.00 | ++ (≥150 and <350) | < 100 |  | 
CCC(CC)Cc1cnc(OC)c(CN[C@H]2[C@H](C(C)(C)C)[C@@H](C(=O)O)N(C(=O)C3CCCCC3)[C@H]2c2ccccc2)c1 [Example I-74] |  |  |  |  | > 6.00 | > 6.00 | +++ (≥350) | > 200 |  | 
COc1ccc(C(C)(C)C)cc1CN[C@H]1[C@H](C(C)(C)C)[C@@H](C(=O)O)N(C(=O)C2CC(=O)N(C(C)C)C2)[C@H]1c1ccccc1 (stereo partly drawn) [II-238] | 5.00 to 6.00 | 5.00 to 6.00 | +++ (≥350) | 100 to 200 |  |  |  |  |  | 
COc1ncc(C(F)(F)F)cc1N[C@H]1[C@H](C(C)(C)C)[C@@H](C(=O)O)N(C(=O)[C@@H]2CCCC[C@H]2C(F)(F)F)[C@H]1c1cccnc1N(C)C [II-485] |  |  |  |  | 5.00 to 6.00 | 5.00 to 6.00 |  |  | < 100 | ++ (≥150 and <350)
COc1ncc(-c2ccc(F)cc2F)cc1CN[C@H]1[C@H](C(C)(C)C)[C@@H](C(=O)O)N(C(=O)C2CCCCC2)[C@H]1c1ccccc1 [II-344] |  |  |  |  | 5.00 to 6.00 | > 6.00 |  |  | 100 to 200 | +++ (≥350)
COc1ccc(C(F)(F)F)cc1CN[C@H]1[C@H](C(C)(C)C)[C@@H](C(=O)O)N(C(=O)C2CCc3ccc(F)cc3O2)[C@H]1c1ccccc1 (stereo partly drawn) [II-398] |  |  |  |  | 5.00 to 6.00 | 5.00 to 6.00 |  |  | < 100 | +++ (≥350)
COc1ccc(C(F)(F)F)cc1CN[C@@H]1[C@@H](C(C)(C)C)[C@H](C(=O)O)N(C(=O)C2CCCCC2)[C@@H]1c1ccccc1OC (racemic) [II-17] | 5.00 to 6.00 | 5.00 to 6.00 | +++ (≥350) | 100 to 200 |  |  |  |  |  | 
COc1ccc(-c2cccnc2C)cc1CN[C@H]1[C@H](C(C)(C)C)[C@@H](C(=O)O)N(C(=O)C2CCCCC2)[C@H]1c1ccccc1 [II-288] | 5.00 to 6.00 | 5.00 to 6.00 | +++ (≥350) | < 100 |  |  |  |  |  | 
COc1cc(OC)nc(N[C@@H]2[C@@H](C(C)(C)C)[C@H](C(=O)O)N(C(=O)C3CCCCC3)[C@@H]2c2ccccc2)n1 (racemic) [Example I-1] |  |  |  |  | 5.00 to 6.00 | 5.00 to 6.00 | +++ (≥350) | < 100 |  | 
COc1ccc(Cl)cc1CN[C@@H]1[C@@H](C(C)(C)OC)[C@H](C(=O)O)N(C(=O)C2CCCCC2)[C@@H]1c1ccccc1 (racemic) [II-79] | 5.00 to 6.00 | 5.00 to 6.00 | +++ (≥350) | > 200 |  |  |  |  |  | 
COc1ccc(C(C)(C)C)cc1CN[C@H]1[C@H](C(C)(C)C)[C@@H](C(=O)O)N(C(=O)[C@@H](C)c2ccccc2)[C@H]1c1ccccc1 [II-326] |  |  |  |  | 5.00 to 6.00 | > 6.00 |  |  | > 200 | +++ (≥350)
CC(C)(C)[C@@H]1[C@@H](NCc2cc(C(F)(F)F)ccc2OCCOC(F)(F)F)[C@@H](c2ccccc2)N(C(=O)C2CCCCC2)[C@H]1C(=O)O (racemic) [III-86] |  |  |  |  | < 5.00 | 5.00 to 6.00 |  |  | < 100 | ++ (≥150 and <350)
COc1ccc(C(C)(C)C)cc1CN[C@H]1[C@H](C(C)(C)C)[C@@H](C(=O)O)N(C(=O)C2CC(F)(F)C2)[C@H]1c1ccccc1 [II-336] |  |  |  |  | 5.00 to 6.00 | 5.00 to 6.00 |  |  | 100 to 200 | +++ (≥350)
